Assay results from ChEMBL document CHEMBL3526040, “Immune-mediated agranulocytosis caused by the cocaine adulterant levamisole: a case for reactive metabolite(s) involvement” (Drug Metab Dispos, 2012).
Values belong to the compound of their own block, whether it stands above or below them.

Experiments:
[1] = Drug excretion in human urine treated with [3H]-levamisole at 150 mg, po; format: ADME, tissue-based; details: in vivo
[2] = Tmax in female human at 150 mg, po; details: in vivo
[3] = Cmax in female human at 150 mg, po; details: in vivo
in vivo [4] = details: dog, po, 10 mg/kg
Description: Oral bioavailability in fasted dog at 10 mg/kg

in vivo [5] = details: dog, po, 10 mg/kg; remark: listed apart in the source
Description: Tmax in fasted dog at 10 mg/kg, po

in vivo [6] = details: dog, plasma, iv, 10 mg/kg
Description: Plasma clearance in dog at 10 mg/kg, iv

[7] = Oral bioavailability in female human at 150 mg; details: in vivo
[8] = Plasma clearance in female human at 150 mg, po
in vivo [9] = details: dog, plasma, po, 10 mg/kg
Description: AUC in fed dog at 10 mg/kg, po

in vivo [10] = details: dog, po, 10 mg/kg; remark: listed apart in the source
Description: Elimination half life in fed dog at 10 mg/kg, po

[11] = Volume of distribution at steady state in dog at 10 mg/kg, iv; details: in vivo
[12] = Elimination half life in male human at 150 mg, po; details: in vivo
[13] = Half life in blood (unknown origin)
in vivo [14] = details: dog, plasma, iv, 10 mg/kg; remark: listed apart in the source
Description: AUC in dog at 10 mg/kg, iv

[15] = Cmax in male human at 150 mg, po; details: in vivo
[16] = AUC in female human at 150 mg, po; details: plasma
[17] = Oral bioavailability in male human at 150 mg; details: in vivo
[18] = Cmax in human at 150 mg, po; details: in vivo
[19] = Renal clearance in male human at 150 mg, po; details: in vivo
in vivo [20] = details: dog, po, 10 mg/kg; remark: listed apart in the source
Description: Oral bioavailability in fed dog at 10 mg/kg

[21] = Plasma clearance in male human at 150 mg, po
in vivo [22] = details: dog, po, 10 mg/kg; remark: listed apart in the source
Description: Cmax in fed dog at 10 mg/kg, po

[23] = Elimination half life in female human at 150 mg, po; details: in vivo
[24] = Tmax in human at 150 mg, po; details: in vivo
[25] = AUC in human at 150 mg, po; details: plasma
in vivo [26] = details: dog, po, 10 mg/kg; remark: listed apart in the source
Description: Cmax in fasted dog at 10 mg/kg, po

[27] = Renal clearance in human at 150 mg, po; details: in vivo
[28] = Tmax in male human at 150 mg, po; details: in vivo
[29] = AUC in male human at 150 mg, po; details: plasma
in vivo [30] = details: dog, plasma, po, 10 mg/kg; remark: listed apart in the source
Description: AUC in fasted dog at 10 mg/kg, po

[31] = Elimination half life in human at 150 mg, po; details: in vivo
in vivo [32] = details: dog, po, 10 mg/kg; remark: listed apart in the source
Description: Tmax in fed dog at 10 mg/kg, po

[33] = Renal clearance in female human at 150 mg, po; details: in vivo
in vivo [34] = details: dog, iv, 10 mg/kg
Description: Elimination half life in dog at 10 mg/kg, iv

[35] = Renal excretion in human at 150 mg, po; details: urine
in vivo [36] = details: dog, po, 10 mg/kg; remark: listed apart in the source
Description: Elimination half life in fasted dog at 10 mg/kg, po

[37] = Oral bioavailability in human at 150 mg; details: in vivo
[38] = Plasma clearance in human at 150 mg, po

Drug excretion [1]: 25%
Compound: O=C(O)[C@H]1O[C@@H](Oc2ccc([C@H]3CN4CCSC4=N3)cc2)[C@H](O)[C@@H](O)[C@@H]1O

Drug excretion [1]: 25%
Compound: Oc1ccc([C@H]2CN3CCSC3=N2)cc1

Tmax [2]: 1.1 h
Cmax [3]: 820 ng/mL
bioavailability (in vivo [4]): 64%
Tmax (in vivo [5]): 1.8 h
clearance (in vivo [6]): 8.92 mL/min/kg
bioavailability [7]: 64.7%
CL/F [8]: 7.56 mL/min/kg
AUC (in vivo [9]): 8940 ng·h/mL
half-life (in vivo [10]): 1.6 h
Vd [11]: 1.42 L/kg
half-life [12]: 5.4 h
half-life [13]: < 6 h
AUC (in vivo [14]): 18100 ng·h/mL
Cmax [15]: 672 ng/mL
AUC [16]: 3070 ng·h/mL
bioavailability [17]: 61.5%
Cmax [18]: 717 ng/mL
CL renal [19]: 31 mL/min
bioavailability (in vivo [20]): 44%
CL/F [21]: 8.25 mL/min/kg
Cmax (in vivo [22]): 1980 ng/mL
half-life [23]: 5.9 h
Tmax [24]: 1.5 h
AUC [25]: 3070 ng·h/mL
Cmax (in vivo [26]): 3330 ng/mL
CL renal [27]: 29.2 mL/min
Tmax [28]: 1.7 h
AUC [29]: 3070 ng·h/mL
AUC (in vivo [30]): 12200 ng·h/mL
half-life [31]: 5.6 h
Tmax (in vivo [32]): 4.5 h
CL renal [33]: 25 mL/min
half-life (in vivo [34]): 1.8 h
dose excreted [35]: 3%
half-life (in vivo [36]): 1.3 h
bioavailability [37]: 62.5%
CL/F [38]: 8.04 mL/min/kg
Compound: c1ccc([C@H]2CN3CCSC3=N2)cc1 [LEVAMISOLE]
